This passage reports DC50 results from patent publication US12391686B2, “Compounds and uses thereof” (Foghorn Therapeutics Inc., priority 2019, dated 2025).

The target in this assay is T1, Nanoluciferase-BRD9 fusion protein (3×FLAG-NLuc-BRD9) in SYO-1 cells (Homo sapiens, UniProt Q9H8M2).
T1 construct: expressed in transfected cells; host or cells: SYO-1
T1 sequence (Q9H8M2 1-597): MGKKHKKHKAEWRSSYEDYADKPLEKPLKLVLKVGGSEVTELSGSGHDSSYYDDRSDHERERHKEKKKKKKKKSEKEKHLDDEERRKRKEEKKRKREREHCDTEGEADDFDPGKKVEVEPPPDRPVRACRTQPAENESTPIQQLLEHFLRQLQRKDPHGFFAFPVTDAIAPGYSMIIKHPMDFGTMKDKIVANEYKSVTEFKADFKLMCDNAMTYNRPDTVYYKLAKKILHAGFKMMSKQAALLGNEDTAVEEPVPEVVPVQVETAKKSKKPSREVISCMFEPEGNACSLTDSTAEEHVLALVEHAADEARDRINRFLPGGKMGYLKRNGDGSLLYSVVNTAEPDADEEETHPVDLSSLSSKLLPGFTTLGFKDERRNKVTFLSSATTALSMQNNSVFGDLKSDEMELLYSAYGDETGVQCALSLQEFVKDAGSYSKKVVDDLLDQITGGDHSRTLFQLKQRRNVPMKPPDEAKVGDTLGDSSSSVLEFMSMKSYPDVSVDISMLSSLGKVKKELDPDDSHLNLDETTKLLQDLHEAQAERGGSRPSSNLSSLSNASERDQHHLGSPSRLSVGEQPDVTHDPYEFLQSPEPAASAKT
In words: SYO1 BRD9 NanoLuc Degradation Assay. Type of assay: cell-based. The following applies: SYO-1 cells expressing 3×FLAG-NLuc-BRD9, 6 hours incubation, 1 μM top dose, read-out: SYO1 BRD9-NanoLuc degradation IC50. The gist of the method:
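NanoLuc signal, read by Nano-Glo luminescence after 6 h compound exposure, gives % inhibition against DMSO-treated cells (high control) and cells given 1 μM of a standard BRD9 degrader (low control). Test compounds ran as 10-point 3-fold series, top 1 μM final, in duplicate on SYO-1 cells stably expressing 3×FLAG-NLuc-BRD9.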

Where two headings read alike, the source gives them in different places.

For the compound `COc1cc(-c2cn(C)c(=O)c3cnc(C(F)(F)F)cc23)cc(OC)c1CN1CC(CN2CCC3(CC2)CN(c2ccc4c(c2)C(=O)N(C2CCC(=O)NC2=O)C4)C3)C1` (stereo not shown) [Compound D186], the DC50 (Table 6C) is below 10 nM. Take `COc1cc(-c2cn(C)c(=O)c3cnc(C(F)(F)F)cc23)cc(OC)c1CN1CCN(CCC2CCN(c3ccc4c(c3)CN(C3CCC(=O)NC3=O)C4=O)CC2)CC1` (stereo not shown) [Compound D309]: for the setting “Table 6C”, the DC50 was below 10 nM. As for `COc1cc(-c2cn(C)c(=O)c3cnc(N(C)C)cc23)cc(OC)c1CN1CCC(c2ccc3c(c2)C(=O)N(C2CCC(=O)NC2=O)C3)CC1` (stereo not shown) [Compound D296], for the setting “Table 6C”, the DC50 was below 10 nM. On the same count and under the same terms, then `COc1cc(-c2cn(C)c(=O)c3cnc(C4CC4)cc23)cc(OC)c1CN1CC(C#Cc2ccc3c(c2)C(=O)N(C2CCC(=O)NC2=O)C3=O)C1` (stereo not shown) [Compound D275], with below 10 nM; and `[2H]C([2H])([2H])n1cc(-c2cc(OC)c(CN3CCC(CN4CCC5(CC4)CC(Oc4ccc6c(c4)C(=O)N(C4CCC(=O)NC4=O)C6=O)C5)CC3)c(OC)c2)c2cc(C3CC3)ncc2c1=O` (stereo not shown) [Compound D307], with below 10 nM; and `COc1cc(-c2cn(C)c(=O)c3cnc(N4CCC4)cc23)cc(OC)c1CN1CC(C(C)(C)N2CCC3(CC2)CN(c2ccc4c(c2)C(=O)N(C2CCC(=O)NC2=O)C4)C3)C1` (stereo not shown) [Compound D192], with below 10 nM. Turning to `COc1cc(-c2cn(C)c(=O)c3cnc(N4CC5(CC5)C4)cc23)cc(OC)c1CN1CCC(CN2CCC3(CC2)CN(c2ccc4c(c2)C(=O)N(C2CCC(=O)NC2=O)C4)C3)CC1` (stereo not shown) [Compound D205], the DC50 (Table 6C) is 10 to 100 nM. Still for that read-out and setting: as for `CCc1cc(-c2cn(C)c(=O)c3cnc(N4CCC4)cc23)cc(OC)c1CN1CCC2(CC1)CN(c1ccc3c(c1)C(=O)N(C1CCC(=O)NC1=O)C3)C2` (stereo not shown) [Compound D264], the figure is below 10 nM.

Regarding `COc1cc(-c2cn(C)c(=O)c3cnc(N(C)C)cc23)cc(OC)c1CN(C)CC12CC(C(=O)NCCCCCNc3ccc4c(c3)C(=O)N(C3CCC(=O)NC3=O)C4=O)(C1)C2` (stereo not shown) [Compound D39], the DC50 (Table 6B) was below 10 nM. Consider `COc1cc(-c2cn(C)c(=O)c3cnc(N4CCC4)cc23)cc(OC)c1CN1CC(Oc2ccc3c(c2)C(=O)N(C2CCC(=O)NC2=O)C3=O)C1` (stereo not shown) [Compound D137], for which the DC50 (Table 6B) is below 10 nM. On to `COc1cc(-c2cn(C)c(=O)c3cnc(N(C)C)cc23)cc(OC)c1CN1CCC(CCCN2Cc3cc4c(cc3C2)C(=O)N(C2CCC(=O)NC2=O)C4=O)CC1` (stereo not shown) [Compound D62], for which the DC50 (Table 6B) is below 10 nM.

Turning to `COc1cc(-c2cn(C)c(=O)c3cnc(N4CC(F)(F)C4)cc23)cc(OC)c1CN1CCC(CCN2CCC3(CC2)CN(c2ccc4c(c2)C(=O)N(C2CCC(=O)NC2=O)C4)C3)CC1` (stereo not shown) [Compound D241], the DC50 (Table 6C) was below 10 nM. Still for that read-out and setting: as for `[2H]C1CC(N2Cc3ccc(N4CCC(CCN5CCN(Cc6c(OC)cc(-c7cn(C)c(=O)c8cnc(N9CCC9)cc78)cc6OC)CC5)CC4)cc3C2=O)C(=O)NC1=O` (stereo not shown) [Compound D244], the figure is below 10 nM. Turning to `COc1cc(-c2cn(C)c(=O)c3cnc(N4CCC4)cc23)cc(OC)c1CN1CCC(c2ccc3c(c2)C(=O)N(C2CCC(=O)NC2=O)C3)CC1` (stereo not shown) [Compound D313], the DC50 (Table 6C) was below 10 nM. Take `COc1cc(-c2cn(C)c(=O)c3cnc(N4CCC4)cc23)cc(OC)c1CN1CCC(N2CCN(c3ccc4c(c3)CN(C3CCC(=O)NC3=O)C4=O)CC2)CC1` (stereo not shown) [Compound D131]: for the setting “Table 6B”, the DC50 was below 10 nM. On the same count and under the same terms, as for `COc1cc(-c2cn(C)c(=O)c3cnc(N(C)C)cc23)cc(Cl)c1CN1CCC(CN2CCC3(CC2)CC(Oc2ccc4c(c2)C(=O)N(C2CCC(=O)NC2=O)C4=O)C3)CC1` (stereo not shown) [Compound D101], the figure is below 10 nM; as for `COc1cc(-c2cn(C)c(=O)c3cnc(N(C)C)cc23)cc(OC)c1CN1CCN(c2ccc3c(c2)CN(C2CCC(=O)NC2=O)C3=O)CC1` (stereo not shown) [Compound D114], below 10 nM.

As to `COc1cc(-c2cn(C)c(=O)c3cnc(N(C)C)cc23)cc(OC)c1C1CCN(c2ccc3c(c2)C(=O)N(C2CCC(=O)NC2=O)C3)CC1` (stereo not shown) [Compound D265], the DC50 (Table 6C) is below 10 nM. Regarding `COc1cc(-c2cn(C)c(=O)c3cnc(N(C)C)cc23)cc(OC)c1CN1CCC(CCN2Cc3cc4c(cc3C2)C(=O)N(C2CCC(=O)NC2=O)C4=O)CC1` (stereo not shown) [Compound D59], the DC50 (Table 6B) is below 10 nM. As to `COc1cc(-c2cn(C)c(=O)c3cnc(N4CCOCC4)cc23)cc(OC)c1CN1CCC(CN2CCC3(CC2)CC(Oc2ccc4c(c2)C(=O)N(C2CCC(=O)NC2=O)C4)C3)CC1` (stereo not shown) [Compound D194], for the setting “Table 6C”, the DC50 is below 10 nM.

As to `COc1cc(-c2cn(C)c(=O)c3cnc(N(C)C)cc23)cc(OC)c1CN1CCC2(CC1)CCN(CC#Cc1ccc3c(c1)C(=O)N(C1CCC(=O)NC1=O)C3=O)C2` (stereo not shown) [Compound D65], the DC50 (Table 6B) is below 10 nM.

As to `COc1cc(-c2cn(C)c(=O)c3cnc(N(C)C)cc23)cc(OC)c1CN1CC2(C1)CN(C(C)(C)C#Cc1ccc3c(c1)C(=O)N(C1CCC(=O)NC1=O)C3=O)C2` (stereo not shown) [Compound D72], for the setting “Table 6B”, the DC50 is below 10 nM. The same measure, in the same setting: then `COc1cc(-c2cn(C)c(=O)c3cnc(N(C)C)cc23)cc(OC)c1CN1CCC(CN2CCC3(CC2)CC(Oc2ccc4c(c2)CN(C2CCC(=O)NC2=O)C4=O)C3)CC1` (stereo not shown) [Compound D103], with below 10 nM.

Consider `[2H]C([2H])([2H])n1cc(-c2cc(OC)c(CN3CCC4(CC3)CN(c3ccc5c(c3)C(=O)N(C3CCC(=O)NC3=O)C5)C4)c(OC)c2)c2cc(C3CC3)ncc2c1=O` (stereo not shown) [Compound D233], for which, where the note is “Table 6C”, the DC50 was below 10 nM. As for `COc1cc(-c2cn(C)c(=O)c3cnc(N(C)C)cc23)cc(OC)c1CN1CCC(C(=O)N2CCC3(CC2)CC(Oc2cc4c(cc2F)C(=O)N(C2CCC(=O)NC2=O)C4=O)C3)CC1` (stereo not shown) [Compound D118], where the note is “Table 6B”, the DC50 was below 10 nM.

`COc1cc(-c2cn(C)c(=O)c3cnc(N4CCC4)cc23)cc(OC)c1CN1CC(C(C)(C)N2CCC3(CC2)CN(c2ccc4c(c2)CN(C2CCC(=O)NC2=O)C4=O)C3)C1` (stereo not shown) [Compound D185]: the DC50 (Table 6C) is below 10 nM.

`COc1cc(-c2cn(C)c(=O)c3cnc(N(C)C)cc23)cc(OC)c1CN1CCN(C2CCN(c3ccc4c(c3)C(=O)N(C3CCC(=O)NC3=O)C4=O)CC2)CC1` (stereo not shown) [Compound D53]: the DC50 (Table 6B) is below 10 nM. In the case of `COc1cc(-c2cn(C)c(=O)c3cnc(N(C)C)cc23)cc(OC)c1CN(C)C12CC(C(=O)NCCCCCOc3ccc4c(c3)C(=O)N(C3CCC(=O)NC3=O)C4=O)(C1)C2` (stereo not shown) [Compound D40], for the setting “Table 6B”, the DC50 is below 10 nM. As for `COc1cc(-c2cn(C)c(=O)c3cnc(N(C)C)cc23)cc(OC)c1CN1CC2(CC(N3Cc4cc5c(cc4C3)C(=O)N(C3CCC(=O)NC3=O)C5=O)C2)C1` (stereo not shown) [Compound D63], the DC50 (Table 6B) was below 10 nM. Turning to `COc1cc(-c2cn(C)c(=O)c3cnc(N(C)C)cc23)cc(OC)c1CN1CC(N2CCN(c3ccc4c(c3)C(=O)N(C3CCC(=O)NC3=O)C4=O)CC2)C1` (stereo not shown) [Compound D69], the DC50 (Table 6B) was below 10 nM. Consider `COc1cc(-c2cn(C)c(=O)c3cnc(N(C)C)cc23)cc(OC)c1CN1CC(CN2CCC3(CC2)CN(c2ccc4c(c2)C(=O)N(C2CCC(=O)NC2=O)C4)C3)C1` (stereo not shown) [Compound D152], for which, for the setting “Table 6B”, the DC50 is below 10 nM. As to `COc1cc(-c2cn(C)c(=O)c3cnc(C4CC4)cc23)cc(OC)c1CN1CCC(C#Cc2ccc3c(c2)C(=O)N(C2CCC(=O)NC2=O)C3=O)CC1` (stereo not shown) [Compound D272], under “Table 6C”, the DC50 was below 10 nM. `COc1cc(-c2cn(C)c(=O)c3cnc(N4CCC4)cc23)ccc1CN1CCC2(CC1)CN(c1ccc3c(c1)CN(C1CCC(=O)NC1=O)C3=O)C2` (stereo not shown) [Compound D148]: where the note is “Table 6B”, the DC50 was below 10 nM. As for `COc1cc(-c2cn(C)c(=O)c3cnc(C4(C)CC4)cc23)cc(OC)c1CN1CCC(CCN2CCN(c3ccc4c(c3)CN(C3CCC(=O)NC3=O)C4=O)CC2)CC1` (stereo not shown) [Compound D238], where the note is “Table 6C”, the DC50 is below 10 nM.

Consider `COc1cc(-c2cn(C)c(=O)c3cnc(N(C)C)cc23)cc(OC)c1CN1CC(S(=O)(=O)NCCN2CCN(c3ccc4c(c3)C(=O)N(C3CCC(=O)NC3=O)C4=O)CC2)C1` (stereo not shown) [Compound D32], for which the DC50 (Table 6B) was below 10 nM. For the compound `COc1cc(-c2cn(C)c(=O)c3cnc(C4CC4)cc23)cc(OC)c1CN1CCC(C(N2CCC3(CC2)CC(Oc2ccc4c(c2)C(=O)N(C2CCC(=O)NC2=O)C4)C3)C(F)(F)F)CC1` (stereo not shown) [Compound D243], where the note is “Table 6C”, the DC50 was below 10 nM. Still for that read-out and setting: then `COc1cc2c(-c3cc(OC)c(CN4CCN(CCC5CCN(c6ccc7c(c6)C(=O)N(C6CCC(=O)NC6=O)C7)CC5)CC4)c(OC)c3)cn(C)c(=O)c2cn1` (stereo not shown) [Compound D225], with below 10 nM; and `COc1cc(-c2cn(C)c(=O)c3cc(F)ccc23)cc(OC)c1CN1CCC(CN2CCC3(CC2)CC(Oc2ccc4c(c2)C(=O)N(C2CCC(=O)NC2=O)C4)C3)CC1` (stereo not shown) [Compound D287], with below 10 nM; and `COc1cc(-c2cn(C)c(=O)c3cnc(N(C)C)cc23)cc(OC)c1CN1CCC(N2CCN(C3CCC(=O)NC3=O)C(=O)C2)C1` (stereo not shown) [Compound D250], with 100 to 1000 nM. For the compound `COc1cc(-c2cn(C)c(=O)c3cnc(N4CCC4)cc23)cc(OC)c1CN1CC(c2ccc3c(c2)C(=O)N(C2CCC(=O)NC2=O)C3=O)C1` (stereo not shown) [Compound D146], the DC50 (Table 6B) was below 10 nM.
